# The supplement of paper PMC13380429
# ± gives the standard deviation of the averaged measurements.
# What was measured:
# Details in all cases: 72 h
# Caco-2 [1] = assay: cell viability relative to DMSO; higher = less toxic
# Calu-3 [2] = assay: as above
# HepG2 [3] = assay: as above
# U2OS [4] = assay: as above
# Vero E6 [5] = assay: as above
# Caco-2 [6] = assay: relative viability EC50 (midpoint between 100% and the lowest measured viability); higher = less toxic
# Calu-3 [7] = assay: as above
# HepG2 [8] = assay: as above
# U2OS [9] = assay: as above
# Vero E6 [10] = assay: as above
# Caco-2 [11] = assay: drug sensitivity score (DSS) for viability; higher = more toxic; extreme values may be limits of the assay
# Calu-3 [12] = assay: as above
# HepG2 [13] = assay: as above
# U2OS [14] = assay: as above
# Vero E6 [15] = assay: as above
Compound,cell viability (Caco-2 [1]; 1 nM) [%],cell viability (Caco-2 [1]; 10 nM) [%],cell viability (Caco-2 [1]; 100 nM) [%],cell viability (Caco-2 [1]; 1000 nM) [%],cell viability (Caco-2 [1]; 10000 nM) [%],cell viability (Calu-3 [2]; 1 nM) [%],cell viability (Calu-3 [2]; 10 nM) [%],cell viability (Calu-3 [2]; 100 nM) [%],cell viability (Calu-3 [2]; 1000 nM) [%],cell viability (Calu-3 [2]; 10000 nM) [%],cell viability (HepG2 [3]; 1 nM) [%],cell viability (HepG2 [3]; 10 nM) [%],cell viability (HepG2 [3]; 100 nM) [%],cell viability (HepG2 [3]; 1000 nM) [%],cell viability (HepG2 [3]; 10000 nM) [%],cell viability (U2OS [4]; 1 nM) [%],cell viability (U2OS [4]; 10 nM) [%],cell viability (U2OS [4]; 100 nM) [%],cell viability (U2OS [4]; 1000 nM) [%],cell viability (U2OS [4]; 10000 nM) [%],cell viability (Vero E6 [5]; 1 nM) [%],cell viability (Vero E6 [5]; 10 nM) [%],cell viability (Vero E6 [5]; 100 nM) [%],cell viability (Vero E6 [5]; 1000 nM) [%],cell viability (Vero E6 [5]; 10000 nM) [%],relative viability EC50 (Caco-2 [6]) [µM],relative viability EC50 (Calu-3 [7]) [µM],relative viability EC50 (HepG2 [8]) [µM],relative viability EC50 (U2OS [9]) [µM],relative viability EC50 (Vero E6 [10]) [µM],drug sensitivity score (Caco-2 [11]),drug sensitivity score (Calu-3 [12]),drug sensitivity score (HepG2 [13]),drug sensitivity score (U2OS [14]),drug sensitivity score (Vero E6 [15])
CC(=O)[C@]1(O)Cc2c(O)c3c(c(O)c2[C@@H](O[C@H]2C[C@H](N)[C@H](O)[C@H](C)O2)C1)C(=O)c1ccccc1C3=O [idarubicin],103,96.1,62.1,10.8,17.4,104,90.1,48.6,27.7,9.7,94.8,50.3,29.7,0,0.1,100,86.3,60.7,1,0,106,94,58.2,6.1,2.9,0.117,0.0921,0.016,0.128,0.12,20.7,21,32.2,22.2,22
COC1=C(OC)C(=O)C(CCCCCCCCCCO)=C(C)C1=O [idebenone],96.4,101,103,98.4,88.6,100,104,90.3,98,95.5,96.1,95.6,99.4,95.9,97.7,98.6,105,94.9,97.7,93.8,102,100,96.9,97.8,97.7,> 10,> 10,> 10,> 10,> 10,0.1,0,0,0,0
CC(=O)N(CC(O)CO)c1c(I)c(C(=O)NCC(O)CO)c(I)c(C(=O)NCC(O)CO)c1I (stereo not given) [iohexol],95.9 ± 4.7,101 ± 3,101 ± 2.3,106 ± 6.4,96.3 ± 6,104 ± 4.5,95.5 ± 2.8,95.8 ± 1.3,104 ± 15,103.7 ± 0.99,96 ± 9.3,103 ± 4.3,99 ± 5.9,102 ± 11,91.7 ± 3,98 ± 4.5,99.2 ± 1.8,99.4 ± 2,99.9 ± 1.1,104.5 ± 0.14,96.2 ± 3.1,101 ± 2.2,98.7 ± 7.5,99.7 ± 2.1,106 ± 6.8,> 10,> 10,> 10,> 10,> 10,0,0,0,0,0
CC(C)CC(N)=O [isovaleramide],106,92.6,99.1,99.4,101,113,103,97.1,105,95.4,103,99.4,101,95.5,101,102,92.8,99.3,89.1,96.7,102,101,102,97.9,93.1,> 10,> 10,> 10,> 10,> 10,0,0,0,0,0
CS(=O)(=O)c1cc(F)cc2c3c(n(Cc4ccc(Cl)cc4)c12)[C@@H](CC(=O)O)CC3 [laropiprant],95.4,102,91,95.4,88.5,101,95.4,90.3,110,94.6,99,94.2,100,98.6,101,100,101,98.3,106,97.5,102,99.6,106,98.2,91.9,> 10,> 10,> 10,> 10,> 10,0,0,0,0,0
CCCCCCCCCCCC(=O)O [lauric-acid],94.1,102,111,110,98.2,102,108,101,100,97.5,105,106,87.4,96,94.3,102,95.3,102,97.6,98.1,111,113,101,104,93.5,> 10,> 10,> 10,> 10,> 10,0,0,0,0,0
[NH-]c1c[n+](N2CCOCC2)no1 [linsidomine],102,96.1,95.8,96.1,89.4,100,96,105,94.3,116,96.9,106,97.7,96.8,104,105,98.8,100,96.3,101,98.9,99.3,95.6,100,91.1,> 10,> 10,> 10,> 10,> 10,0,0,0,0,0
COc1cc(C[C@H](C)[C@H](C)Cc2ccc3c(c2)OCO3)ccc1O [macelignan],87.3,102,93.9,96.6,87.3,99.3,102,102,101,103,98.4,103,92.1,81.1,86.3,98.5,99,94,101,91.5,100,106,98.9,95.4,101,> 10,> 10,> 10,> 10,> 10,0,0,3.3,0,0
COC(=O)[C@@H](N)CS [mecysteine],96.1,95,97.7,99.8,102,104,106,87.2,109,99.2,108,107,99.6,91.1,105,98.2,101,96.3,100,95.3,95.8,97.5,98.5,88.6,101,> 10,> 10,> 10,> 10,> 10,0,0,0,0,0
Cc1cc(C)cc(OCC2CNC(=O)O2)c1 (stereo not given) [metaxalone],100,101,99.9,103,105,95.6,102,103,100,95.4,92.1,99.7,87,93.2,101,97.4,96.8,97.1,99.2,98.8,101,103,102,105,97.7,> 10,> 10,> 10,> 10,> 10,0,0,0,0,0
Cc1cc(=O)[nH]c(=S)[nH]1 [methylthiouracil],98.7,96.6,99.3,96.3,94.6,106,109,83.8,97.7,96.6,107,108,95.1,95.3,105,103,99,98.7,97.4,97.3,101,92.6,100,92.1,97.8,> 10,> 10,> 10,> 10,> 10,0,0,0,0,0
O=P(O)(O)C(O)(Cc1cnc2ccccn12)P(=O)(O)O [minodronic-acid],98.1,103,96.4,103,98.6,98.1,95.1,104,96.5,106,99.2,102,106,85.5,101,100,97.6,95.9,102,102,106,102,98.6,100,98.1,> 10,> 10,> 10,> 10,> 10,0,0,0,0,0
Oc1ccc2c3c1O[C@H]1[C@@H](O)CC[C@@]4(O)[C@@H](C2)N(CC2CCC2)CC[C@]314 [nalbuphine],102,102,101,88.4,98.6,103,95.2,95.9,117,105,107,99.2,110,95.9,91.4,97.7,96.5,98.2,92.4,96.9,99.9,104,95.3,102,96.5,> 10,> 10,> 10,> 10,> 10,0,0,0,0,0
CCOc1cc2ncc(C#N)c(Nc3ccc(OCc4ccccn4)c(Cl)c3)c2cc1NC(=O)/C=C/CN(C)C [neratinib],98.7,93.4,85.1,54.7,35,93.4,69.6,43.9,34.9,33.7,111,97.3,88.2,77.6,17.8,93.6,96.7,96.7,88,75.7,104,102,90.9,64.1,17.5,0.365,0.0124,1.59,> 10,1.14,10.3,22.8,7.5,1.8,8.7
